The test system of assay [1] is Botrytis cinerea. The assay is classed as cell-based. Conditions: 120 h, 25 ppm by volume, Vogel medium, 20° C., five days, dark, read-out: growth inhibition ratio.
The test system of assay [2] is Colletotrichum acutatum. The assay can be described thus: Fungicidal effect test against fungi causing apple anthracnose. Conditions: 96 h, read-out: growth inhibition ratio.
In assay [3] the test system is Glomerella cingulata. The assay can be described thus: Fungicidal effect test against fungi causing grape ripe rot disease. Conditions: Colletotrichum gloeosporioides, 72 h, read-out: growth inhibition ratio.

On to `Cc1ccc(CN(C)NC(=O)c2cc(C)nnc2Oc2cccc(C3CC3)c2F)c(C)c1` [b-2], for which the inhibition of growth at 25 ppm in assay [1], in assay [2] and in assay [3] was at least 75% each time.

`Cc1ccc(CN(NC(=O)c2cc(C)nnc2Oc2cccc(C3CC3)c2F)C(=O)C(F)(F)F)c(C)c1` [b-4]: the inhibition of growth at 25 ppm in assay [1], in assay [2] and in assay [3] was at least 75% each time.

`CC(=O)N(Cc1ccc(C)cc1C)NC(=O)c1cc(Cl)nnc1Oc1cccc(C(F)(F)F)c1` [b-11]: the inhibition of growth at 25 ppm in assay [1], in assay [2] and in assay [3] was at least 75% in each case.

As to `Cc1cc(C(=O)NN(C=O)Cc2ccc(Cl)cc2Cl)c(Oc2cccc(C3CC3)c2F)nn1` [b-12], the inhibition of growth at 25 ppm in assay [1], in assay [2] and in assay [3] was at least 75% throughout.

Regarding `COC(=O)N(Cc1ccc(C)cc1C)NC(=O)c1cc(C)nnc1Oc1cccc(C2CC2)c1F` [b-17], the inhibition of growth at 25 ppm in assay [1], in assay [2] and in assay [3] was at least 75% in each case.

`Cc1ccc(CN(NC(=O)c2cc(C)nnc2Oc2cccc(C3CC3)c2F)C(=O)C(C)(C)C)c(C)c1` [b-19]: in assay [2], the inhibition of growth at 25 ppm was at least 75%.

With `Cc1ccc(CN(NC(=O)c2cc(C)nnc2Oc2cccc(C3CC3)c2F)C(=O)c2ccccc2)c(C)c1` [b-24], the inhibition of growth at 25 ppm in assay [1], in assay [2] and in assay [3] was at least 75% throughout.

As to `Cc1ccc(CN(NC(=O)c2cc(C)nnc2Oc2cccc(C3CC3)c2F)C(=O)c2cnn(C)c2)c(C)c1` [b-39], the inhibition of growth at 25 ppm in assay [1], in assay [2] and in assay [3] was at least 75% throughout.

In the case of `COC(=O)N(Cc1ccc(O)cc1C)NC(=O)c1cc(C)nnc1Oc1cccc(C2CC2)c1F` [b-41], the inhibition of growth at 25 ppm in assay [2] and in assay [3] was at least 75% each time.

Take `Cc1ccc(CN(NC(=O)c2cc(C)nnc2Oc2cccc(C3CC3)c2F)C(=O)N(C)C)c(C)c1` [b-47]: the inhibition of growth at 25 ppm in assay [2] and in assay [3] was at least 75% each time.

As to `Cc1ccc(CN(NC(=O)c2cc(C)ncc2Oc2cccc(C3CC3)c2F)C(=O)N(C)C)c(C)c1` [b-48], the inhibition of growth at 25 ppm in assay [1], in assay [2] and in assay [3] was at least 75% in each case.

With `Cc1ccc(CN(NC(=O)c2nc(C)ncc2Oc2cccc(C3CC3)c2F)C(=O)N(C)C)c(C)c1` [b-49], the inhibition of growth at 25 ppm in assay [2] and in assay [3] was at least 75% throughout.

As to `COC(=O)N(Cc1ccc(C)cc1C)NC(=O)c1cc(C)nnc1Oc1ccc(C2CC2)cc1` [b-54], the inhibition of growth at 25 ppm in assay [1], in assay [2] and in assay [3] was at least 75% throughout.

Take `Cc1ccc(CN(NC(=O)c2cc(C)nnc2Oc2cccc(C3CC3)c2F)C(=O)C(=O)N(C)C)c(C)c1` [b-56]: the inhibition of growth at 25 ppm in assay [2] and in assay [3] was at least 75% in each case.

On to `COC(=O)N(Cc1ccc(C)cc1C)NC(=O)c1cc(C)nnc1Oc1ccc2ccccc2c1` [b-61], for which the inhibition of growth at 25 ppm in assay [1], in assay [2] and in assay [3] was at least 75% in each case.

Take `COC(=O)N(Cc1ccc(C)cc1C)NC(=NO)c1cc(C)nnc1Oc1cccc(C2CC2)c1F` [b-63]: the inhibition of growth at 25 ppm in assay [1], in assay [2] and in assay [3] was at least 75% throughout.

As for `COc1ccc(CN(NC(=O)c2cc(C)nnc2Oc2cccc(C3CC3)c2F)c2cccc(C)c2)cc1` [b-73], the inhibition of growth at 25 ppm in assay [3] is at least 75%.

Consider `COC(=O)N(Cc1ccc(C)cc1C)NC(=O)c1cc(C)nnc1Sc1cccc(C(F)(F)F)c1` [b-78, Methyl 1-(2,4-dimethylbenzyl)-2-(6-methyl-3-((3-(trifluoromethyl)phenyl)thio)pyridazine-4-carbonyl)hydrazine-1-carboxylate], for which the inhibition of growth at 25 ppm in assay [1], in assay [2] and in assay [3] was at least 75% each time.

In the case of `COC(=O)C(=O)N(Cc1ccc(C)cc1C)NC(=O)c1cc(C)nnc1Oc1cccc(C2CC2)c1F` [b-82], the inhibition of growth at 25 ppm in assay [1], in assay [2] and in assay [3] was at least 75% throughout.

In the case of `COC(=O)N(CCCc1ccc(C)cc1)NC(=O)c1cc(C)nnc1Oc1cccc(C2CC2)c1F` [b-89], the inhibition of growth at 25 ppm in assay [1], in assay [2] and in assay [3] was at least 75% throughout.

As to `COC(=O)N(Cc1ccc(C)cc1C)NC(=O)c1cc(C)nnc1Oc1ccc2cccnc2c1` [b-97], the inhibition of growth at 25 ppm in assay [3] is at least 75%.

On to `COC(=O)N(Cc1ccc(C)cc1C)NC(=O)c1cc(C)nnc1Oc1ccc(Br)cc1F` [b-98], for which the inhibition of growth at 25 ppm in assay [1] is at least 75%.

Turning to `COC(=O)N(Cc1ccc(C)cc1C)NC(=O)c1cc(C)nnc1Oc1ccc(Cl)cc1F` [b-99], the inhibition of growth at 25 ppm in assay [1] was at least 75%.

On to `COC(=O)N(Cc1sc(Cl)nc1Cl)NC(=O)c1cc(C)nnc1Oc1cccc(C2CC2)c1F` [b-120], for which the inhibition of growth at 25 ppm in assay [1], in assay [2] and in assay [3] was at least 75% in each case.

In the case of `COC(=O)N(Cc1ccc(C)cc1C)NC(=O)c1cc(C)nnc1Oc1cccc(C(C)=O)c1` [b-131], the inhibition of growth at 25 ppm in assay [2] and in assay [3] was at least 75% in each case.

`COC(=O)N(Cc1ccc(C)cc1C)NC(=O)c1cc(C)nnc1Oc1cccc(C(C)C)c1` [b-132]: the inhibition of growth at 25 ppm in assay [2] and in assay [3] was at least 75% in each case.

For `COC(=O)N(Cc1ccc(C)cc1C)NC(=O)c1cc(C)nnc1Oc1cccc(N(C)C)c1` [b-137], the inhibition of growth at 25 ppm in assay [2] and in assay [3] was at least 75% throughout.

As for `COC(=O)N(Cc1cnc2ccccc2c1)NC(=O)c1cc(C)nnc1Oc1cccc(C2CC2)c1F` [b-161], the inhibition of growth at 25 ppm in assay [2] and in assay [3] was at least 75% throughout.

As to `Cc1cc(C(=O)NN2CCCc3ccccc32)c(Oc2cccc(C3CC3)c2F)nn1` [b-198], the inhibition of growth at 25 ppm in assay [3] is at least 75%.

As for `COC(=O)N(Cc1ccc(C)cc1C)NC(=O)c1c(Oc2cccc(Cl)c2F)cncc1Oc1cccc(Cl)c1F` [b-203], the inhibition of growth at 25 ppm in assay [2] and in assay [3] was at least 75% in each case.

In the case of `COC(=O)N(Cc1ccc(C)cc1C)NC(=O)c1cc2cncn2nc1Oc1cccc(C2CC2)c1` [b-210, Methyl 2-(2-(3-cyclopropylphenoxy)imidazo[1,5-b]pyridazine-3-carbonyl)-1-(2,4-dimethylbenzyl)hydrazine-1-carboxylate], the inhibition of growth at 25 ppm in assay [2] and in assay [3] was at least 75% in each case.

`COC(=O)N(Cc1ccc(C)cc1C)NC(=O)c1c(C#N)cncc1Oc1cccc(C2CC2)c1F` [b-216]: the inhibition of growth at 25 ppm in assay [2] and in assay [3] was at least 75% each time.

Take `COC(=O)N(Cc1ccc(C)cc1C)NC(=O)c1cc(NC(=O)OC(C)(C)C)nnc1Oc1cccc(Cl)c1F` [b-218]: the inhibition of growth at 25 ppm in assay [1] was at least 75%.

For the compound `COC(=O)N(NC(=O)c1cc(C)nnc1Oc1cccc(C2CC2)c1F)c1ccc(C)s1` [b-222], the inhibition of growth at 25 ppm in assay [3] is at least 75%.
